{"source": "patent US20160324962A1", "about": "“COMPOSITIONS AND METHODS FOR TREATING SARCOMA” (MEDIMMUNE, LLC, priority 2013, published 2016)", "key": {"[1]": {"test_system": "RD-ES (Ewing's sarcoma) xenografts", "assay": "Xenograft efficacy study in mice", "assay_type": "in vivo", "conditions": "RD-ES xenograft model", "description": "Although proliferation of SK-ES-1 and SJCRH30 cells was inhibited by MEDI-573 in vitro in the absence of exogenous IGFs, the in vivo growth of these two models was not effected by MEDI-573 treatment.\nThe combination treatments were tolerated as no significant body weight loss was observed (FIG. 17B).\nFor in vivo efficacy studies, five million sarcoma cells in 50% matrigel were inoculated subcutaneously into each female athymic nude mice. When tumors reach approximately 150-200 mm^3, mice were randomly assigned into groups (10 mice per group). MEDI-573 was administrated intraperitoneally twice per week at indicated doses. The dose regimen for AZD2014 was oral once every day, for rapamycin was intraperitoneal injection every 3 days. Tumor volumes were measured twice weekly with calipers. Tumor growth inhibition was calculated on the last day of study relative to the initial and final mean tumor volume of the control group."}, "RD-ES cells": {"test_system": "RD-ES cells", "assay": "Cytotoxicity assay, MEDI-573 and mTOR inhibitors", "assay_type": "cell-based", "conditions": "agents alone or in combination (FIG. 14)"}, "p4EBP1": {"test_system": "p4EBP1", "assay": "Immunoblot of cell lysates after MEDI-573, mTORi, combination", "assay_type": "cell-based", "conditions": "single agent, 4 hours", "method": "(§1) To examine the effect of MEDI-573, mTORi, and combination of both on IGF signaling, RD-ES, SJSA-1, and KHOS cells were treated with these agents for 4 hours. After separation of the cell lysates by gel electrophoresis, the proteins were detected by immunoblotting."}, "pAKT": {"test_system": "pAKT", "assay": "Immunoblot of cell lysates after MEDI-573, mTORi, combination", "assay_type": "cell-based", "conditions": "all 3 cell lines, 4 hours", "method": "as §1"}, "pS6K": {"test_system": "pS6K", "assay": "Immunoblot of cell lysates after MEDI-573, mTORi, combination", "assay_type": "cell-based", "method": "as §1"}}, "data": [{"compound": "CO[C@H]1C[C@@H]2CC[C@@H](C)[C@@](O)(O2)C(=O)C(=O)N2CCCC[C@H]2C(=O)O[C@H]([C@H](C)C[C@@H]2CC[C@@H](O)[C@H](OC)C2)CC(=O)[C@H](C)/C=C(\\C)[C@@H](O)[C@@H](OC)C(=O)[C@H](C)C[C@H](C)/C=C/C=C/C=C/1C", "note": "[rapamycin]", "values": [{"measurement": "tumor growth inhibition", "setting": "[1]; rapamycin combination study (FIG. 17A)", "result": 44, "unit": "%"}, {"measurement": "decrease in cell viability", "setting": "RD-ES cells", "result": 34, "unit": "%"}, {"measurement": "phosphorylation of 4EBP1", "setting": "p4EBP1", "result": "did not have effect"}, {"measurement": "phosphorylation of AKT", "setting": "pAKT", "result": "induced phosphorylation of AKT"}, {"measurement": "pS6K", "setting": "pS6K; all 3 cell lines (RD-ES, SJSA-1, KHOS), 4 hours", "result": "completely inhibited pS6K"}]}, {"compound": "CNC(=O)c1cccc(-c2ccc3c(N4CCOC[C@@H]4C)nc(N4CCOC[C@@H]4C)nc3n2)c1", "note": "[AZD2014]", "values": [{"measurement": "tumor growth inhibition", "setting": "[1]; AZD2014 combination study (FIG. 16A)", "result": 51, "unit": "%"}, {"measurement": "decrease in cell viability", "setting": "RD-ES cells", "result": 55, "unit": "%"}, {"measurement": "phosphorylation of pS6K", "setting": "pS6K; RD-ES cells", "result": "inhibited phosphorylation of pS6K"}, {"measurement": "phosphorylation of pS6K", "setting": "pS6K; SJSA-1 or KHOS cells", "result": "did not inhibit phosphorylation of pS6K"}]}]}
